Source: patent US20130190524A1, “CYCLITOLS AND THEIR DERIVATIVES AND THEIR THERAPEUTIC APPLICATIONS” (UNIVERSITE DE STRASBOURG, priority 2006, published 2013)

Assays:
free hemoglobin (Hb) = biological target: T1, free hemoglobin (Hb) (Homo sapiens, UniProt P68871); assay: P50 (oxygen equilibrium curve, Hemox Analyzer) on free hemoglobin; type: biochemical; conditions: blood matrix Hb, free hemoglobin 100 μM, pH 7.4, 37° C.; for P50: effector 2 mM (effector/Hb ratio 20), n=3; for P50 increase: versus P50 control, effector 2 mM
T1 construct: the cells were hemolysed by addition of 2 volumes of cold distilled water; tissue EFS-Alsace; host or cells: red blood cell concentrate, hemolysed, stroma removed, passed over Sephadex G-25
Description: (§1) Some of the compounds described herein were tested for P50 on free hemoglobin (Hb) as well as human whole blood (WB) as 120 mM solutions. The hemoglobin solution was prepared from red blood cells concentrate (EFS-Alsace) by washing three times with 1 volume of saline (1500×g, 10 min), the cells were hemolysed by addition of 2 volumes of cold distilled water. After centrifugation (7000×g, 30 min) for stroma removal, 5 ml of the clear hemoglobin solution were placed on a 2.5 cm×30 cm column of Sephadex G-25 equilibrated with 0.1 M sodium chloride+10^−5 M EDTA. The protein was eluted with the same solution at a rate of about 20 ml/h [Benesch, R.; Benesch, R. E. and Yu, C. I. Reciprocal binding of oxygen and diphosphoglycerate by human hemoglobin. Proc. Natl. Acad. Sci. USA (1968) 59, 526-532].
The allosteric modulation of the effectors was measured by the change in p50, the partial pressure of oxygen for half-saturation. myo-Inositol hexaphosphate (myo-1HP) was purchased from Sigma. Oxygen equilibrium curves (OEC) were carried out with the Hemox Analyzer (TCS Scientific Co.) under the following conditions: pH 7.4, 135 mM NaCl, 5 mM KCl and 30 mM TES (N-[tris(hydroxymethyl)methyl]-2-aminoethanesulfonic acid) buffer at 37° C. The concentration of free hemoglobin was 100 μM (577 nm, ε=58.4 mM^−1 cm^−1 per tetramer) and the final concentration of the allosteric effector in the cuvette was 2 mM resulting in an effector/Hb ratio of 20.

human whole blood (WB) = assay: P50 (oxygen dissociation curve, Hemox Analyzer) on human whole blood; type: cell-based; conditions: blood matrix WB, 120 mM compound solution, 1:1 with whole blood; for P50: incubated two hours at 37° C., n=3; for P50 increase: versus P50 control, two hours at 37° C.
Description: as §1
Human blood was freshly withdrawn in heparinized tubes. The pH of the compound solutions was adjusted to approximately 7.0 and whole blood volumes at 1:1 ratios where incubated individually for two hours at 37° C. with the above compounds. Following, incubation, blood cells were washed 3 times with Bis-Tris-buffer. The measurement of oxygen dissociation curves was made in a Hemox-Analyzer instrument (TCS Scientific Corp.) A summary of P50 values for whole blood induced by the compounds is presented in Table 1.

T1 sequence (P68871 2-147 limits assumed): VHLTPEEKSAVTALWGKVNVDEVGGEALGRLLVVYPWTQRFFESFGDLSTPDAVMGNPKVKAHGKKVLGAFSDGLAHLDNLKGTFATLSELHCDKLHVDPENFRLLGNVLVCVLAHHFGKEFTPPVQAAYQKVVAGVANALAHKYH
T1 sequence (P69905 2-142 partner limits assumed): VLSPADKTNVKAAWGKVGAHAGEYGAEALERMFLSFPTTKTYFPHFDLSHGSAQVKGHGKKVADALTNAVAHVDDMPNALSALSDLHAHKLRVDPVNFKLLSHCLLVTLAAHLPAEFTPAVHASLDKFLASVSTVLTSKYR

Compound	P50 (free hemoglobin (Hb)) [Torr]	P50 increase (free hemoglobin (Hb)) [%]	P50 (human whole blood (WB)) [Torr]	P50 increase (human whole blood (WB)) [%]
Hexasodium scyllo-inositol 1,2:3,4:5,6-trispyrophosphate [scyllo-ITPP (Compound 4, Scheme 5)]	23.02 ± 1.83	127	34.10 ± 1.81	18
O[C@H]1[C@H](O)[C@@H](O)[C@H](O)[C@@H](O)[C@H]1O [myo-Inositol (Compound 7, Scheme 6)]	27.43 ± 1.07	158		
O[C@H]1[C@H](O)[C@@H](O)[C@H](O)[C@@H](O)[C@H]1O [myo-Inositol (Compound 5, Scheme 6)]	27.25 ± 0.14	148	35.53 ± 1.43	23
O=P(O)(O)O[C@H]1[C@H](OP(=O)(O)O)[C@@H](OP(=O)(O)O)[C@H](OP(=O)(O)O)[C@@H](OP(=O)(O)O)[C@H]1OP(=O)(O)O [myo-IHP, myo-Inositol hexaphosphate, reference compound]	48.37 ± 3.71	282		
